Results from PubChem BioAssay AID1963963 (Molecular Pharmacology Branch, DTP, NCI, 2024).
Where “and” joins values, the source holds several entries; their conditions need not be identical. Equal entries are not always repeated.

Test system: 958667-338-R-J2-PDC tumor spheroids viability
Test: Anticancer human tumor 958667-338-R-J2-PDC patient-derived colon adenocarcinoma cell line growth inhibition [PI3K]
Details: spheroids with HUVEC and MSC; for viability, T/C: stronger effect = lower value
In short: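 We assembled tumor spheroids that included a stromal compartment of HUVEC and MSCs, then exposed them to targeted agents alone and together with PI3K pathway inhibitors. Concentration series descended by half-log from clinically achievable Cmax levels. Viability served as the endpoint.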

[1] = curve of first compound, second compound 0.00316 µM
[2] = curve of first compound, second compound 0.01 µM
[3] = curve of first compound, second compound 0.0316 µM
[4] = curve of first compound, second compound 0.1 µM
[5] = curve of first compound, second compound 0.316 µM
[6] = curve of first compound, second compound 1 µM
[7] = second compound 0.00316 µM, first compound 0.0316 µM
[8] = second compound 0.00316 µM, first compound 0.1 µM
[9] = second compound 0.00316 µM, first compound 0.316 µM
[10] = second compound 0.00316 µM, first compound 1 µM
[11] = second compound 0.00316 µM, first compound 3.16 µM
[12] = second compound 0.00316 µM, first compound 10 µM
[13] = second compound 0.01 µM, first compound 0.0316 µM
[14] = second compound 0.01 µM, first compound 0.1 µM
[15] = second compound 0.01 µM, first compound 0.316 µM
[16] = second compound 0.01 µM, first compound 1 µM
[17] = second compound 0.01 µM, first compound 3.16 µM
[18] = second compound 0.01 µM, first compound 10 µM
[19] = second compound 0.0316 µM, first compound 0.0316 µM
[20] = second compound 0.0316 µM, first compound 0.1 µM
[21] = second compound 0.0316 µM, first compound 0.316 µM
[22] = second compound 0.0316 µM, first compound 1 µM
[23] = second compound 0.0316 µM, first compound 3.16 µM
[24] = second compound 0.0316 µM, first compound 10 µM
[25] = second compound 0.1 µM, first compound 0.0316 µM
[26] = second compound 0.1 µM, first compound 0.1 µM
[27] = second compound 0.1 µM, first compound 0.316 µM
[28] = second compound 0.1 µM, first compound 1 µM
[29] = second compound 0.1 µM, first compound 3.16 µM
[30] = second compound 0.1 µM, first compound 10 µM
[31] = second compound 0.316 µM, first compound 0.0316 µM
[32] = second compound 0.316 µM, first compound 0.1 µM
[33] = second compound 0.316 µM, first compound 0.316 µM
[34] = second compound 0.316 µM, first compound 1 µM
[35] = second compound 0.316 µM, first compound 3.16 µM
[36] = second compound 0.316 µM, first compound 10 µM
[37] = second compound 1 µM, first compound 0.0316 µM
[38] = second compound 1 µM, first compound 0.1 µM
[39] = second compound 1 µM, first compound 0.316 µM
[40] = second compound 1 µM, first compound 1 µM
[41] = second compound 1 µM, first compound 3.16 µM
[42] = second compound 1 µM, first compound 10 µM
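Also: spheroids exposed to compounds for seven days before readout.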

Cn1ncc(Cl)c1-c1cc(C(=O)NC(CN)Cc2cccc(F)c2)sc1Cl (stereo not given) + CC(Nc1ccc2c(c1)OCCn1cc(N3C(=O)OCC3C(F)F)nc1-2)C(N)=O
IC50 [1]: 3.02 µM
IC50 [2]: 2.35 µM
IC50 [3]: 2.71 µM
IC50 [4]: 1.95 µM
IC50 [5]: 0.944 µM
IC50 [6]: < 0.0316 µM
viability, T/C [7]: 98.9%
viability, T/C [8]: 94.4%
viability, T/C [9]: 96.2%
viability, T/C [10]: 76.3%
viability, T/C [11]: 49.4%
viability, T/C [12]: 41.6%
viability, T/C [13]: 109%
viability, T/C [14]: 104%
viability, T/C [15]: 104%
viability, T/C [16]: 75%
viability, T/C [17]: 41.8%
viability, T/C [18]: 27.7%
viability, T/C [19]: 106%
viability, T/C [20]: 91.2%
viability, T/C [21]: 94.2%
viability, T/C [22]: 85.8%
viability, T/C [23]: 44.3%
viability, T/C [24]: 29.5%
viability, T/C [25]: 95.8%
viability, T/C [26]: 89%
viability, T/C [27]: 79.4%
viability, T/C [28]: 65.7%
viability, T/C [29]: 38.4%
viability, T/C [30]: 25.6%
viability, T/C [31]: 54.1%
viability, T/C [32]: 79.6%
viability, T/C [33]: 63%
viability, T/C [34]: 48.5%
viability, T/C [35]: 31.8%
viability, T/C [36]: 24.9%
viability, T/C [37]: 46.1%
viability, T/C [38]: 54.1%
viability, T/C [39]: 45.1%
viability, T/C [40]: 46%
viability, T/C [41]: 31.2%
viability, T/C [42]: 20.8%

CCCS(=O)(=O)Nc1ccc(F)c(C(=O)c2c[nH]c3ncc(-c4ccc(Cl)cc4)cc23)c1F
viability, T/C (compound 0.1 µM): 94.2% and 87.7% and 113% (2×)
viability, T/C (compound 0.316 µM): 107% [middle of 4 runs]
viability, T/C (compound 1 µM): 114% [middle of 4 runs]
viability, T/C (compound 3.16 µM): 116% [middle of 4 runs]
viability, T/C (compound 10 µM): 10.9% [middle of 4 runs]
IC50 (curve of compound): 6.27 µM [middle of 4 runs]

CC1(C)CCC(CN2CCN(c3ccc(C(=O)NS(=O)(=O)c4ccc(NCC5CCOCC5)c([N+](=O)[O-])c4)c(Oc4cnc5[nH]ccc5c4)c3)CC2)=C(c2ccc(Cl)cc2)C1 + CC(Nc1ccc2c(c1)OCCn1cc(N3C(=O)OCC3C(F)F)nc1-2)C(N)=O
IC50 [1]: > 10 µM
IC50 [2]: 9.01 µM
IC50 [3]: 7.32 µM
IC50 [4]: 6.41 µM
IC50 [5]: 4.7 µM
IC50 [6]: > 10 µM
viability, T/C [7]: 92.8%
viability, T/C [8]: 116%
viability, T/C [9]: 95.6%
viability, T/C [10]: 111%
viability, T/C [11]: 102%
viability, T/C [12]: 69.5%
viability, T/C [13]: 91.6%
viability, T/C [14]: 89.3%
viability, T/C [15]: 91.2%
viability, T/C [16]: 87.3%
viability, T/C [17]: 86.3%
viability, T/C [18]: 46.4%
viability, T/C [19]: 84.2%
viability, T/C [20]: 118%
viability, T/C [21]: 86%
viability, T/C [22]: 97.9%
viability, T/C [23]: 86.9%
viability, T/C [24]: 36.1%
viability, T/C [25]: 72%
viability, T/C [26]: 79.7%
viability, T/C [27]: 74.3%
viability, T/C [28]: 77.4%
viability, T/C [29]: 96.6%
viability, T/C [30]: 31%
viability, T/C [31]: 71.7%
viability, T/C [32]: 59.5%
viability, T/C [33]: 67.5%
viability, T/C [34]: 71.8%
viability, T/C [35]: 70.1%
viability, T/C [36]: 15.5%
viability, T/C [37]: 49%
viability, T/C [38]: 60.7%
viability, T/C [39]: 63%
viability, T/C [40]: 63.4%
viability, T/C [41]: 60.7%
viability, T/C [42]: 35.5%
